36 compounds from patent US9469615B2, “Quinoxalines and AZA-quinoxalines as CRTH2 receptor modulators” (Merck Sharp & Dohme Corp., priority 2010, dated 2016) can be followed below.

One experiment deals with T1, hCRTH2 (Homo sapiens, UniProt Q9Y5Y4).
T1 construct: expressed in transfected cells; host or cells: HEK (human embryonic kidney) cells expressing hCRTH2; membrane preparation
T1 sequence (Q9Y5Y4 1-395): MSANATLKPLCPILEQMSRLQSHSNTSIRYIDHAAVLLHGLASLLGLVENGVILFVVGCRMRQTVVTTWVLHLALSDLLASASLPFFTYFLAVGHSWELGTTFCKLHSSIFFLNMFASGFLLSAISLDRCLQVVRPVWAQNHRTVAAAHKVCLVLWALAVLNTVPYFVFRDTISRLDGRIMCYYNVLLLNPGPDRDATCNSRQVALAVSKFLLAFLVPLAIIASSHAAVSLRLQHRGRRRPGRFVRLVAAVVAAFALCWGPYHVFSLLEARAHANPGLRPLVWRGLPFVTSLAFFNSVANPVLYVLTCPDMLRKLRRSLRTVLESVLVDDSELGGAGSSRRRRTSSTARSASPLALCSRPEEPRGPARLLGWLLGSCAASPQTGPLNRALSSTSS
Put plainly: Radioligand binding assay ([3H]PGD2 competition, HEK-hCRTH2 membranes). As to conditions: [3H]PGD2 binding, rated A-E (Table A). The protocol:
Biological Assays Radioligand Binding Assay.
Radioligand binding assays were performed at room temperature in 50 mM Tris-HCl pH 7.4, 1 mM EDTA containing 2 mM MnCl2 and 3.0 nM [^3H]PGD2 (New England Nuclear, Boston, Mass.) (171 Ci mmol^−1), in a final volume of 0.2 mL. Competing ligands were diluted in dimethylsulfoxide (Me2SO) that was kept constant at 1% (v/v) of the final incubation volume. The reaction was initiated by the addition of 8-20 μg of membrane protein prepared from a human embryonic kidney (HEK)-hCRTH2 cell line. Total and non-specific binding were determined in the absence and the presence of 10 μM PGD2, respectively. […] The reaction was routinely conducted for 60 min at room temperature and terminated by rapid filtration through prewetted (0.3% polyethyleneimine) 96-well printed Filtermate™ (Wallac) using a Tomtec® harvester (Hamden, Conn.). After washing with cold buffer, the filter was dried for 2 minutes in microwave, and Meltilex Scintillator sheet (Wallac) was melted on for 2 min. The radioactivity was measured with Betaplate model 1205 (Wallac).
What is called Ki is the equilibrium dissociation constant of an inhibitor or competing ligand from its target. A lower Ki goes with tighter binding. Consider `O=C(O)CCCCc1nc2cc(C(=O)Nc3cccc(F)c3)ccc2nc1-c1ccc(F)cc1` [5N, 3-(4-fluorophenyl)-7-[[(3-fluorophenyl)amino]carbonyl]-2-quinoxalinepentanoic acid], for which the inhibitory constant (Ki) was in the range of 20.1 to 200 nM.
Still for that read-out and setting: with `O=C(O)CCCCc1nc2cc(C(=O)Nc3ccc(F)cc3)ccc2nc1-c1ccc(F)cc1` [5O, 3-(4-fluorophenyl)-7-[[(4-fluorophenyl)amino]carbonyl]-2-quinoxalinepentanoic acid] the figure was 20.1 to 200 nM.
The compound `O=C(O)CCCCc1nc2cc(C(=O)Nc3ccccc3F)ccc2nc1-c1ccc(F)cc1` [5P, 3-(4-fluorophenyl)-7-[[(2-fluorophenyl)amino]carbonyl]-2-quinoxalinepentanoic acid] gave a Ki of 201 to 700 nM.
`CN(C)C(=O)c1ccc2nc(-c3ccc(F)cc3)c(CCCCC(=O)O)nc2c1` [5Q, 7-[(dimethylamino)carbonyl]-3-(4-fluorophenyl)-2-quinoxalinepentanoic acid] came in with a Ki of 20.1 to 200 nM.
Turning to `CC(C)NC(=O)c1ccc2nc(-c3ccc(F)cc3)c(CCCCC(=O)O)nc2c1` [5R, 3-(4-fluorophenyl)-7-[[(1-methylethyl)amino]carbonyl]-2-quinoxalinepentanoic acid], the Ki lay within 2.1 to 20 nM.
The same measure, in the same setting: with `O=C(O)CCCCc1nc2cc(C(=O)N3CCC3)ccc2nc1-c1ccc(F)cc1` [5S, 7-(1-azetidinylcarbonyl)-3-(4-fluorophenyl)-2-quinoxalinepentanoic acid] the figure was 2.1 to 20 nM; with `O=C(O)CCCCc1nc2cc(C(=O)C3CC3)ccc2nc1-c1ccccc1` [6G, 7-(cyclopropylcarbonyl)-3-phenyl-2-quinoxalinepentanoic acid], 0.1 to 2 nM; with `COC(=O)c1ccc2nc(-c3ccccc3)c(CCCCC(=O)O)nc2c1` [6H, 7-(methoxycarbonyl)-3-phenyl-2-quinoxalinepentanoic acid], 2.1 to 20 nM.
Compound `CC(C)C(=O)c1ccc2nc(-c3ccc(F)cc3)c(CCCCC(=O)O)nc2c1` [7C, 3-(4-fluorophenyl)-7-(2-methyl-1-oxopropyl)-2-quinoxalinepentanoic acid] displayed a Ki of 0.1 to 2 nM.
Same read-out and setting: with `C[C@@H](NC(=O)c1ccc2nc(CCCCC(=O)O)c(-c3ccccc3)nc2c1)c1ccc(F)cc1` [8G] the figure was 20.1 to 200 nM.
In the case of `O=C(O)CCCOc1nc2cc(C(=O)NCc3ccc(Cl)cc3)ccc2nc1-c1ccccc1` [10C, 4-({7-[(4-chlorobenzyl)carbamoyl]-3-phenylquinoxalin-2-yl}oxy)butanoic acid], the inhibitory constant (Ki) fell in the range of 0.1 to 2 nM.
`C[C@H](NC(=O)c1ccc2nc(-c3ccccc3)c(OCCCC(=O)O)nc2c1)c1ccccc1` [10D, 4-[(3-phenyl-7-{[(1S)-1-phenylethyl]carbamoyl}quinoxalin-2-yl)oxy] butanoic acid]: the Ki was in the range of 2.1 to 20 nM.
Compound `CN(Cc1ccccc1)C(=O)c1ccc2nc(-c3ccccc3)c(OCCCC(=O)O)nc2c1` [10E, 4-({7-[benzyl(methyl)carbamoyl]-3-phenylquinoxalin-2-yl}oxy)butanoic acid] showed an inhibition constant (Ki) of 0.1 to 2 nM.
Same read-out and setting: with `O=C(O)CCCOc1nc2cc(C(=O)N3CCc4ccccc4C3)ccc2nc1-c1ccccc1` [10F, 4-{[7-(3,4-dihydroiso-quinolin-2(1H)-ylcarbonyl)-3-phenylquinoxalin-2-yl]oxy} butanoic acid] the figure was 2.1 to 20 nM; with `O=C(O)CCCCc1nc2cc(NC(=O)c3ccc(OC(F)(F)F)cc3)ccc2nc1-c1ccccc1` [11D], 201 to 700 nM.
The same measure, in the same setting: with `O=C(O)CCCCc1nc2cc(NC(=O)c3ccc(Cl)cc3)ccc2nc1-c1ccccc1` [11E, 5-(7-{[(4-chlorophenyl)-carbonyl]amino}-3-phenyl-quinoxalin-2-yl)pentanoic acid] the figure was 201 to 700 nM; with `O=C(O)CCCCc1nc2cc(NC(=O)Cc3ccc(C(F)(F)F)cc3)ccc2nc1-c1ccccc1` [11F, 5-[3-phenyl-7-({[4-(trifluoromethyl)phenyl]acetyl}amino)quinoxalin-2-yl]pentanoic acid], 201 to 700 nM; with `C[C@H](NC(=O)c1cnc2nc(-c3ccccc3)c(CCCCC(=O)O)nc2c1)c1ccccc1` [14C, 5-(3-phenyl-7-{[(1S)-1-phenylethyl]carbamoyl}pyrido[2,3-b]pyrazin-2-yl)pentanoic acid], 20.1 to 200 nM.
The same measure, in the same setting: with `O=C(O)CCCCc1nc2cc(C(=O)NCc3ccc(Cl)cc3)cnc2nc1-c1ccccc1` [14D, 5-{7-[(4-chlorobenzyl)-carbamoyl]-3-phenylpyrido[2,3-b]pyrazin-2-yl} pentanoic acid] the figure was 2.1 to 20 nM; with `O=C(O)CCCCc1nc2cc(C(=O)NC3(c4ccccc4)CC3)cnc2nc1-c1ccccc1` [14E, 5-{3-phenyl-7-[(1-phenylcyclopropyl)carbamoyl]-pyrido[2,3-b]pyrazin-2-yl}pentanoic acid], 20.1 to 200 nM.
Take `C[C@@H](NC(=O)c1cnc2nc(-c3ccccc3)c(CCCCC(=O)O)nc2c1)c1ccccc1` [14F, 5-(3-phenyl-7-{[(1R)-1-phenylethyl]carbamoyl}pyrido[2,3-b]pyrazin-2-yl)pentanoic acid]: the Ki was in the range of 20.1 to 200 nM.
Still for that read-out and setting: with `O=C(O)CCCCc1nc2cc(C(=O)N3CCN(c4ccccc4)CC3)cnc2nc1-c1ccccc1` [14G, 5-{3-phenyl-7-[(4-phenylpiperazin-1-yl)carbonyl]pyrido [2,3-b]pyrazin-2-yl}pentanoic acid] the figure was 0.1 to 2 nM; with `CC(NC(=O)c1cnc2nc(-c3ccccc3)c(CCCCC(=O)O)nc2c1)c1ccncc1` (stereo not drawn) [14H, 5-{3-phenyl-7-[(1-pyridin-4-ylethyl)carbamoyl]pyrido[2,3-b]pyrazin-2-yl} pentanoic acid], 20.1 to 200 nM; with `C[C@@H](NC(=O)c1ccc2nc(-c3ccccc3)c(CCCCC(=O)O)nc2c1)c1ccccc1` [15A, 5-(3-phenyl-7-{[(1R)-1-phenylethyl]carbamoyl}quinoxalin-2-yl) pentanoic acid], 2.1 to 20 nM.
On to `O=C(O)CCCCc1nc2cc(C(=O)Nc3ccccc3)ccc2nc1-c1ccccc1` [15AA, 5-[3-phenyl-7-(phenylcarbamoyl)quinoxalin-2-yl] pentanoic acid], for which the Ki was in the range of 20.1 to 200 nM.
Turning to `O=C(O)CCCCc1nc2cc(C(=O)NCc3ccccc3F)ccc2nc1-c1ccccc1` [15AB, 5-{7-[(2-fluorobenzyl)carbamoyl]-3-phenylquinoxalin-2-yl}pentanoic acid], the Ki lay within 0.1 to 2 nM.
The same measure, in the same setting: with `O=C(O)CCCCc1nc2cc(C(=O)NCc3cccc(F)c3)ccc2nc1-c1ccccc1` [15AC, 5-{7-[(3-fluorobenzyl)carbamoyl]-3-phenylquinoxalin-2-yl}pentanoic acid] the figure was 0.1 to 2 nM; with `O=C(O)CCCCc1nc2cc(C(=O)NCc3ccc(F)cc3)ccc2nc1-c1ccccc1` [15AD, 5-{7-[(4-fluorobenzyl)carbamoyl]-3-phenylquinoxalin-2-yl}pentanoic acid], 2.1 to 20 nM.
Same read-out and setting: with `O=C(O)CCCCc1nc2cc(C(=O)NC3(c4ccccc4)CC3)ccc2nc1-c1ccccc1` [15AE, 5-{3-phenyl-7-[(1-phenylcyclopropyl)carbamoyl]quinoxalin-2-yl}pentanoic acid] the figure was 2.1 to 20 nM; with `O=C(O)CCCCc1nc2cc(C(=O)NCc3ccccn3)ccc2nc1-c1ccccc1` [15AF, 5-{3-phenyl-7-[(pyridin-2-ylmethyl)carbamoyl]quinoxalin-2-yl} pentanoic acid], 2.1 to 20 nM.
Still for that read-out and setting: with `O=C(O)CCCCc1nc2cc(C(=O)NCc3cccnc3)ccc2nc1-c1ccccc1` [15AG, 5-{3-phenyl-7-[(pyridin-3-ylmethyl)carbamoyl]quinoxalin-2-yl} pentanoic acid] the figure was 2.1 to 20 nM; with `O=C(O)CCCCc1nc2cc(C(=O)NCc3ccncc3)ccc2nc1-c1ccccc1` [15AH, 5-{3-phenyl-7-[(pyridin-4-ylmethyl)carbamoyl]quinoxalin-2-yl} pentanoic acid], 20.1 to 200 nM; with `O=C(O)CCCCc1nc2cc(C(=O)N3CCCCC3c3ccccc3)ccc2nc1-c1ccccc1` (stereo not drawn) [15AJ, 5-{3-phenyl-7-[(2-phenylpiperidin-1-yl)carbonyl]quinoxalin-2-yl}pentanoic acid], 2.1 to 20 nM.
Consider `O=C(O)CCCCc1nc2cc(C(=O)N3CCC(c4ccccc4)C3)ccc2nc1-c1ccccc1` (stereo not drawn) [15AK, 5-{3-phenyl-7-[(3-phenylpyrrolidin-1-yl)carbonyl]quinoxalin-2-yl}pentanoic acid], for which the Ki lay within 2.1 to 20 nM.
Still for that read-out and setting: with `O=C(O)CCCCc1nc2cc(C(=O)N3CCCC3c3ccccc3)ccc2nc1-c1ccccc1` (stereo not drawn) [15AL, 5-{3-phenyl-7-[(2-phenylpyrrolidin-1-yl)carbonyl]quinoxalin-2-yl}pentanoic acid] the figure was 0.1 to 2 nM.
The same measure, in the same setting: with `O=C(O)CCCCc1nc2cc(C(=O)NC3(c4ccccc4)CCC3)ccc2nc1-c1ccccc1` [15AM, 5-{3-phenyl-7-[(1-phenylcyclobutyl)carbamoyl]quinoxalin-2-yl}pentanoic acid] the figure was 2.1 to 20 nM.

Staying with this experiment, now noted: [3H]PGD2 binding, values in text.
With `O=C(O)CCCCc1nc2cc(C(=O)Nc3ccccc3F)ccc2nc1-c1ccc(F)cc1` [5P, 3-(4-fluorophenyl)-7-[[(2-fluorophenyl)amino]carbonyl]-2-quinoxalinepentanoic acid], the Ki stood at 266 nM.
Still for that read-out and setting: with `O=C(O)CCCCc1nc2cc(C(=O)C3CC3)ccc2nc1-c1ccccc1` [6G, 7-(cyclopropylcarbonyl)-3-phenyl-2-quinoxalinepentanoic acid] the figure was 0.5 nM; with `O=C(O)CCCCc1nc2cc(NC(=O)Cc3ccc(C(F)(F)F)cc3)ccc2nc1-c1ccccc1` [11F, 5-[3-phenyl-7-({[4-(trifluoromethyl)phenyl]acetyl}amino)quinoxalin-2-yl]pentanoic acid], 223 nM.
